Measurements from PubChem BioAssay AID2060485 (Molecular Pharmacology Branch, DTP, NCI, 2025).

Test system: A375 multi-cell spheroids with HUVEC/MSC, viability
Experiment: Anticancer human tumor A375 cell line growth inhibition [GQUAD];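 note: spheroids exposed to compounds for seven days before readout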
Details: for IC50: curve of first compound; for viability, T/C: stronger effect = lower value
Outline: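 Multi-cell-type spheroids of tumor cells with HUVEC and mesenchymal stem cells, treated with drug combinations. Concentrations descend in half-log steps from near clinical Cmax, or from 10 microM where Cmax is unknown; viability read-out.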

[1] = second compound 0.0316 µM, first compound 0.0316 µM
[2] = second compound 0.0316 µM, first compound 0.1 µM
[3] = second compound 0.0316 µM, first compound 0.316 µM
[4] = second compound 0.0316 µM, first compound 1 µM
[5] = second compound 0.0316 µM, first compound 3.16 µM
[6] = second compound 0.0316 µM, first compound 10 µM
[7] = second compound 0.1 µM, first compound 0.0316 µM
[8] = second compound 0.1 µM, first compound 0.1 µM
[9] = second compound 0.1 µM, first compound 0.316 µM
[10] = second compound 0.1 µM, first compound 1 µM
[11] = second compound 0.1 µM, first compound 3.16 µM
[12] = second compound 0.1 µM, first compound 10 µM
[13] = second compound 0.316 µM, first compound 0.0316 µM
[14] = second compound 0.316 µM, first compound 0.1 µM
[15] = second compound 0.316 µM, first compound 0.316 µM
[16] = second compound 0.316 µM, first compound 1 µM
[17] = second compound 0.316 µM, first compound 3.16 µM
[18] = second compound 0.316 µM, first compound 10 µM
[19] = second compound 1 µM, first compound 0.0316 µM
[20] = second compound 1 µM, first compound 0.1 µM
[21] = second compound 1 µM, first compound 0.316 µM
[22] = second compound 1 µM, first compound 1 µM
[23] = second compound 1 µM, first compound 3.16 µM
[24] = second compound 1 µM, first compound 10 µM
[25] = second compound 3.16 µM, first compound 0.0316 µM
[26] = second compound 3.16 µM, first compound 0.1 µM
[27] = second compound 3.16 µM, first compound 0.316 µM
[28] = second compound 3.16 µM, first compound 1 µM
[29] = second compound 3.16 µM, first compound 3.16 µM
[30] = second compound 3.16 µM, first compound 10 µM
[31] = second compound 10 µM, first compound 0.0316 µM
[32] = second compound 10 µM, first compound 0.1 µM
[33] = second compound 10 µM, first compound 0.316 µM
[34] = second compound 10 µM, first compound 1 µM
[35] = second compound 10 µM, first compound 3.16 µM
[36] = second compound 10 µM, first compound 10 µM

What does the source list for CC(=O)O[C@H]1C(=O)[C@@]2(C)[C@H]([C@H](OC(=O)c3ccccc3)[C@]3(O)C[C@H](OC(=O)[C@H](O)[C@@H](NC(=O)c4ccccc4)c4ccccc4)C(C)=C1C3(C)C)[C@]1(OC(C)=O)CO[C@@H]1C[C@@H]2O + Cc1cnc(CNC(=O)c2c(=O)c3ccc(N4CCCN(C)CC4)nc3n3c2sc2ccccc23)cn1?
IC50 (second compound 0.0316 µM): 64.2 nM; IC50 (second compound 0.1 µM): 36.1 nM; IC50 (second compound 0.316 µM): < 31.6 nM; IC50 (second compound 1 µM): < 31.6 nM; IC50 (second compound 3.16 µM): < 31.6 nM; IC50 (second compound 10 µM): < 31.6 nM; viability, T/C [1]: 77.3%; viability, T/C [2]: 33%; viability, T/C [3]: 18.5%; viability, T/C [4]: 14.2%; viability, T/C [5]: 14.7%; viability, T/C [6]: 19%; viability, T/C [7]: 53.3%; viability, T/C [8]: 24.9%; viability, T/C [9]: 17.8%; viability, T/C [10]: 21.1%; viability, T/C [11]: 18.1%; viability, T/C [12]: 23.2%; viability, T/C [13]: 40.1%; viability, T/C [14]: 25.9%; viability, T/C [15]: 25.2%; viability, T/C [16]: 21.2%; viability, T/C [17]: 20.1%; viability, T/C [18]: 22.8%; viability, T/C [19]: 35%; viability, T/C [20]: 24.3%; viability, T/C [21]: 26.8%; viability, T/C [22]: 28.2%; viability, T/C [23]: 31%; viability, T/C [24]: 32.1%; viability, T/C [25]: 30.1%; viability, T/C [26]: 23.1%; viability, T/C [27]: 24.4%; viability, T/C [28]: 28.7%; viability, T/C [29]: 28.2%; viability, T/C [30]: 33.7%; viability, T/C [31]: 26.7%; viability, T/C [32]: 23.3%; viability, T/C [33]: 23.5%; viability, T/C [34]: 23.3%; viability, T/C [35]: 26%; viability, T/C [36]: 29.6%

Which results are given for COc1cc(C2c3cc4c(cc3C(OC3OC5COC(C)OC5C(O)C3O)C3COC(=O)C23)OCO4)cc(OC)c1O (stereo not drawn) + Cc1[nH]c2ccc(F)cc2c1-c1nc2c3cccnc3c3ncccc3c2[nH]1?
IC50 (second compound 0.0316 µM): 1630 nM; IC50 (second compound 0.1 µM): 1010 nM; IC50 (second compound 0.316 µM): 1840 nM; IC50 (second compound 1 µM): 1810 nM; IC50 (second compound 3.16 µM): 1300 nM; IC50 (second compound 10 µM): 969 nM; viability, T/C [1]: 109%; viability, T/C [2]: 109%; viability, T/C [3]: 97.6%; viability, T/C [4]: 59.6%; viability, T/C [5]: 37.6%; viability, T/C [6]: 26.9%; viability, T/C [7]: 97.7%; viability, T/C [8]: 134%; viability, T/C [9]: 94.8%; viability, T/C [10]: 51.5%; viability, T/C [11]: 33.1%; viability, T/C [12]: 27.7%; viability, T/C [13]: 101%; viability, T/C [14]: 156%; viability, T/C [15]: 89.2%; viability, T/C [16]: 68.2%; viability, T/C [17]: 40.2%; viability, T/C [18]: 26%; viability, T/C [19]: 109%; viability, T/C [20]: 130%; viability, T/C [21]: 89.7%; viability, T/C [22]: 62.5%; viability, T/C [23]: 43.2%; viability, T/C [24]: 29%; viability, T/C [25]: 69%; viability, T/C [26]: 86.6%; viability, T/C [27]: 69.8%; viability, T/C [28]: 51.6%; viability, T/C [29]: 40.2%; viability, T/C [30]: 27.8%; viability, T/C [31]: 78.9%; viability, T/C [32]: 87.4%; viability, T/C [33]: 76.1%; viability, T/C [34]: 48.2%; viability, T/C [35]: 34.4%; viability, T/C [36]: 25.6%

Which IC50 (second compound 0.0316 µM) does the source give for Cc1[nH]c2ccccc2c1CCNCc1ccc(/C=C/C(=O)NO)cc1 + Cc1cnc(CNC(=O)c2c(=O)c3ccc(N4CCCN(C)CC4)nc3n3c2sc2ccccc23)cn1 here?
Its IC50 is 112 nM.

What about the IC50 (second compound 0.1 µM) of the same compound?
Its IC50 is 48.8 nM.

And the IC50 (second compound 0.316 µM)?
Its IC50 is 35.9 nM.

And the IC50 (second compound 1 µM)?
Its IC50 is less than 0.999 nM.

And the IC50 (second compound 3.16 µM)?
Its IC50 is less than 0.999 nM.

And the IC50 (second compound 10 µM)?
Its IC50 is less than 0.999 nM.

What about the viability, T/C (second compound 0.0316 µM, first compound 0.000999 µM) of the same compound?
The viability, T/C was 98.2%.

And the viability, T/C (second compound 0.0316 µM, first compound 0.00316 µM)?
Its viability, T/C is 103%.

And the viability, T/C (second compound 0.0316 µM, first compound 0.00999 µM)?
Its viability, T/C is 123%.

And the viability, T/C [1]?
Its viability, T/C is 113%.

What about the viability, T/C (second compound 0.0316 µM, first compound 0.0999 µM) of the same compound?
The viability, T/C was 54.4%.

And the viability, T/C [3]?
The viability, T/C was 10.3%.

What about the viability, T/C (second compound 0.1 µM, first compound 0.000999 µM) of the same compound?
Its viability, T/C is 74.6%.

And the viability, T/C (second compound 0.1 µM, first compound 0.00316 µM)?
The viability, T/C was 69.7%.

And the viability, T/C (second compound 0.1 µM, first compound 0.00999 µM)?
The viability, T/C was 74%.

And the viability, T/C [7]?
The viability, T/C was 60.5%.

What about the viability, T/C (second compound 0.1 µM, first compound 0.0999 µM) of the same compound?
Its viability, T/C is 31.7%.

And the viability, T/C [9]?
Its viability, T/C is 8.85%.

What about the viability, T/C (second compound 0.316 µM, first compound 0.000999 µM) of the same compound?
Its viability, T/C is 54.1%.

And the viability, T/C (second compound 0.316 µM, first compound 0.00316 µM)?
The viability, T/C was 55.5%.

What about the viability, T/C (second compound 0.316 µM, first compound 0.00999 µM) of the same compound?
Its viability, T/C is 49%.

What about the viability, T/C [13] of the same compound?
Its viability, T/C is 53.9%.

And the viability, T/C (second compound 0.316 µM, first compound 0.0999 µM)?
Its viability, T/C is 25.2%.

And the viability, T/C [15]?
Its viability, T/C is 8.14%.

What about the viability, T/C (second compound 1 µM, first compound 0.000999 µM) of the same compound?
The viability, T/C was 37.2%.

What about the viability, T/C (second compound 1 µM, first compound 0.00316 µM) of the same compound?
Its viability, T/C is 42.2%.

What about the viability, T/C (second compound 1 µM, first compound 0.00999 µM) of the same compound?
Its viability, T/C is 39.4%.

And the viability, T/C [19]?
Its viability, T/C is 35.4%.

What about the viability, T/C (second compound 1 µM, first compound 0.0999 µM) of the same compound?
The viability, T/C was 18.7%.

And the viability, T/C [21]?
The viability, T/C was 1.63%.

And the viability, T/C (second compound 3.16 µM, first compound 0.000999 µM)?
Its viability, T/C is 35.6%.

And the viability, T/C (second compound 3.16 µM, first compound 0.00316 µM)?
Its viability, T/C is 30.9%.

And the viability, T/C (second compound 3.16 µM, first compound 0.00999 µM)?
Its viability, T/C is 35.5%.

And the viability, T/C [25]?
The viability, T/C was 34.1%.

What about the viability, T/C (second compound 3.16 µM, first compound 0.0999 µM) of the same compound?
The viability, T/C was 13.6%.

And the viability, T/C [27]?
The viability, T/C was 0.08%.

What about the viability, T/C (second compound 10 µM, first compound 0.000999 µM) of the same compound?
Its viability, T/C is 30.9%.

What about the viability, T/C (second compound 10 µM, first compound 0.00316 µM) of the same compound?
Its viability, T/C is 25.6%.

What about the viability, T/C (second compound 10 µM, first compound 0.00999 µM) of the same compound?
The viability, T/C was 29.1%.

And the viability, T/C [31]?
Its viability, T/C is 25%.

And the viability, T/C (second compound 10 µM, first compound 0.0999 µM)?
The viability, T/C was 8.95%.

What about the viability, T/C [33] of the same compound?
The viability, T/C was 0.14%.

Which results are given for O=c1[nH]cc(F)c(=O)[nH]1 + CN(C)c1ccc(Nc2c3ccc(NC(=O)CCN4CCCC4)cc3nc3cc(NC(=O)CCN4CCCC4)ccc23)cc1?
IC50 (second compound 0.0316 µM): > 10000 nM; IC50 (second compound 0.1 µM): > 10000 nM; IC50 (second compound 0.316 µM): > 10000 nM; IC50 (second compound 1 µM): > 10000 nM; IC50 (second compound 3.16 µM): > 10000 nM; IC50 (second compound 10 µM): > 10000 nM; viability, T/C [1]: 98.7%; viability, T/C [2]: 107%; viability, T/C [3]: 97.2%; viability, T/C [4]: 106%; viability, T/C [5]: 109%; viability, T/C [6]: 99.3%; viability, T/C [7]: 99.8%; viability, T/C [8]: 104%; viability, T/C [9]: 99.3%; viability, T/C [10]: 103%; viability, T/C [11]: 106%; viability, T/C [12]: 96.8%; viability, T/C [13]: 112%; viability, T/C [14]: 102%; viability, T/C [15]: 97.8%; viability, T/C [16]: 103%; viability, T/C [17]: 107%; viability, T/C [18]: 92.9%; viability, T/C [19]: 108%; viability, T/C [20]: 100%; viability, T/C [21]: 94.2%; viability, T/C [22]: 104%; viability, T/C [23]: 105%; viability, T/C [24]: 96%; viability, T/C [25]: 108%; viability, T/C [26]: 98.1%; viability, T/C [27]: 101%; viability, T/C [28]: 99.1%; viability, T/C [29]: 100%; viability, T/C [30]: 95.4%; viability, T/C [31]: 106%; viability, T/C [32]: 94.4%; viability, T/C [33]: 101%; viability, T/C [34]: 102%; viability, T/C [35]: 105%; viability, T/C [36]: 98.4%
